Patent US20260232670A1, “TYRO3 SELECTIVE INHIBITORS AND USES THEREOF” (THE UNIVERSITY OF NORTH CAROLINA AT CHAPEL HILL, priority 2023, published 2026)

How the values were obtained:
[1] = molecular target: T1, AXL (Homo sapiens, UniProt P30530); experiment: Microfluidic capillary electrophoresis (MCE) kinase activity assay, Axl; type: biochemical
T1 sequence (P30530 26-894): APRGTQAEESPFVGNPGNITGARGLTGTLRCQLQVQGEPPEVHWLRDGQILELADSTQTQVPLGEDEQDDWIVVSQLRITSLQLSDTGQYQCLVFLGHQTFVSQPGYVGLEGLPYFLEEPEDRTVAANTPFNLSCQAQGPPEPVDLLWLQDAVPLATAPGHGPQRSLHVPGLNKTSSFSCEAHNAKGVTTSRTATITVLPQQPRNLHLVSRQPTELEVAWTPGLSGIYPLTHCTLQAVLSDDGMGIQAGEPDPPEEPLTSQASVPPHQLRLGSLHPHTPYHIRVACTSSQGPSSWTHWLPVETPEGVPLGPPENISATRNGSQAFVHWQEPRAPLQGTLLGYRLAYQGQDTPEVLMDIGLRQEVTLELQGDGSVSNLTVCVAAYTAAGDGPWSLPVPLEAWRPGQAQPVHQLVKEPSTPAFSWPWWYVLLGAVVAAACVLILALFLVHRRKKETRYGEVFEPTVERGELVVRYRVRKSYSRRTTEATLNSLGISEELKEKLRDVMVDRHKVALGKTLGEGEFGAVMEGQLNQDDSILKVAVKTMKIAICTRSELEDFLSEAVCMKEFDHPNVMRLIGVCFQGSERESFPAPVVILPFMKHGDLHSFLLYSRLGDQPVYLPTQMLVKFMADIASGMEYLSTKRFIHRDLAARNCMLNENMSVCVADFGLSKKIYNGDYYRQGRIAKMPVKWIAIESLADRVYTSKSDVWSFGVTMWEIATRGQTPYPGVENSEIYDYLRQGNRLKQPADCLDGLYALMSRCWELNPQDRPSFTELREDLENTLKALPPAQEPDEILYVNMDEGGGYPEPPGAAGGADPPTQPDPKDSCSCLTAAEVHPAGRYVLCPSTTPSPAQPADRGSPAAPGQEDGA

[2] = molecular target: T2, MERTK (Homo sapiens, UniProt Q12866); experiment: Microfluidic capillary electrophoresis (MCE) kinase activity assay, Mer; type: biochemical
T2 sequence (Q12866 21-999): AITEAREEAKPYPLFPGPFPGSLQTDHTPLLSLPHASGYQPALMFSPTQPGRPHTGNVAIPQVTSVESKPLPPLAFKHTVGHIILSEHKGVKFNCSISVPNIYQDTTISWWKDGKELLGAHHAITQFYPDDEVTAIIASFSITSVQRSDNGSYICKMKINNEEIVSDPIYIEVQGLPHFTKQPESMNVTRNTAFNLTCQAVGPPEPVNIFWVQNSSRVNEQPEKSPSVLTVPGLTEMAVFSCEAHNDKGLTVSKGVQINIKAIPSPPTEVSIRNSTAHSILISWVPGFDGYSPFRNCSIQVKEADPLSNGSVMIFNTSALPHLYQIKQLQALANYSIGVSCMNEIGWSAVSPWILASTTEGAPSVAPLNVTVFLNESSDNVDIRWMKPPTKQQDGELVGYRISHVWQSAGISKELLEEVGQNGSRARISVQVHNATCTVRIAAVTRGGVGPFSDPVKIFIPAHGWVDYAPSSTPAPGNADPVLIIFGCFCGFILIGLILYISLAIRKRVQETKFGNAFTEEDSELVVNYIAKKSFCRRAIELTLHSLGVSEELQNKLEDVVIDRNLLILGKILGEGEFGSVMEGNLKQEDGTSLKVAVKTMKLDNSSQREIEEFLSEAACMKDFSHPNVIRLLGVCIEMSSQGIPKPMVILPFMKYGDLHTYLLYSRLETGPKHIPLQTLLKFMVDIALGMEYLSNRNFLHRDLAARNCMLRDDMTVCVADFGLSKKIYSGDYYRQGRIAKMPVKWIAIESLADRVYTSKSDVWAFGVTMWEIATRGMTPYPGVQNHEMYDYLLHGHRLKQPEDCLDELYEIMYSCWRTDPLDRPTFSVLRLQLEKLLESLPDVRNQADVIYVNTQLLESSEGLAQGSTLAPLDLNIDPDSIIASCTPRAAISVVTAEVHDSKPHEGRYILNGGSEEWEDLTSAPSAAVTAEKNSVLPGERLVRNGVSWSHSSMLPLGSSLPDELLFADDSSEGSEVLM

[3] = molecular target: T3, TYRO3 (Homo sapiens, UniProt Q06418); experiment: Microfluidic capillary electrophoresis (MCE) kinase activity assay, Tyro3; type: biochemical
T3 sequence (Q06418 41-890): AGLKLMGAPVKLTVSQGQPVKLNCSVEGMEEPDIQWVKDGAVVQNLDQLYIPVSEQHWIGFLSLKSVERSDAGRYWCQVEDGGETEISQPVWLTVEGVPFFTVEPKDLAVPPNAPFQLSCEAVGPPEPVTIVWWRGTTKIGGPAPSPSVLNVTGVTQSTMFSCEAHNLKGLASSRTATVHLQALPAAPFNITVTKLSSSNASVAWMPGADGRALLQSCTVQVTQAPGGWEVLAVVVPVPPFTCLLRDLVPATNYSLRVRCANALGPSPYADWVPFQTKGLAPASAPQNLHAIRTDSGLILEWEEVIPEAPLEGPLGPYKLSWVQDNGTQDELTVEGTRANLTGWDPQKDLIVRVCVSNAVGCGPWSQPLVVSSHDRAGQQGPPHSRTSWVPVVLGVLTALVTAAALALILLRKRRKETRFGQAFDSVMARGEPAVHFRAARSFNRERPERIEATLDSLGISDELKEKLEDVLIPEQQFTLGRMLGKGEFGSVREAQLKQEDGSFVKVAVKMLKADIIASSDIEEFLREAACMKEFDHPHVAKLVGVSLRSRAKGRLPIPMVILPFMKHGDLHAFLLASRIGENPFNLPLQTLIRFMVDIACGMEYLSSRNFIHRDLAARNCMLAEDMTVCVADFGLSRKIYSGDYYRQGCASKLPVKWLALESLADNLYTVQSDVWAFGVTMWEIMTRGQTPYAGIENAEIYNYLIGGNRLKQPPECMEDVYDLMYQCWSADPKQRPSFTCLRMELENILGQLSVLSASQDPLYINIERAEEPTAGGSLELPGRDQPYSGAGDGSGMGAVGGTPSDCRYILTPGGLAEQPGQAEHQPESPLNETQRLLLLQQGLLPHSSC

[4] = cited from earlier work

Row | Compound | IC50 ([1]; Table 2, MCE assay, ATP at Km) [nM] | IC50 ([2]; Table 2, MCE assay, ATP at Km) [nM] | IC50 ([3]; Table 2, MCE assay, ATP at Km) [nM] | other results
1 | CC(C)(C)OC(=O)N1CCN(Cc2ccc(-c3cn([C@H]4CC[C@H](O)CC4)c4nc(Nc5cc(F)cc(Cl)c5)ncc34)cc2)CC1 [Compound 28] | 100 to 1000 | 100 to 1000 | < 10 | 
2 | O[C@H]1CC[C@H](n2cc(-c3ccc(CN4CCNCC4)cc3)c3cnc(Nc4cc(F)cc(Cl)c4)nc32)CC1 [Compound 29] | 10 to 100 | < 10 | < 10 | 
3 | CCN1CCN(Cc2ccc(-c3cn([C@H]4CC[C@H](O)CC4)c4nc(Nc5cc(F)cc(Cl)c5)ncc34)cc2)CC1 [Compound 30] | 10 to 100 | < 10 | < 10 | 
4 | O[C@H]1CC[C@H](n2cc(-c3ccc(CN4CCN(C5CCCC5)CC4)cc3)c3cnc(Nc4cc(F)cc(Cl)c4)nc32)CC1 [Compound 31] | 10 to 100 | < 10 | < 10 | 
5 | CN1CCN(Cc2ccc(-c3cn([C@H]4CC[C@@H](O)CC4)c4nc(Nc5cc(F)cc(Cl)c5)ncc34)cc2)CC1 [Compound 39] |  |  |  | IC50 ([1]; Table 3, MCE assay, ATP at Km): 10 to 100 nM; IC50 ([2]; Table 3, MCE assay, ATP at Km): < 10 nM; IC50 ([3]; Table 3, MCE assay, ATP at Km): < 10 nM
6 | CN1CCC(Oc2ccc(-c3cn([C@H]4CC[C@H](O)CC4)c4nc(Nc5cc(F)cc(Cl)c5)ncc34)cc2)CC1 [Compound 60] |  |  |  | IC50 ([1]; Table 7): 10 to 100 nM; IC50 ([2]; Table 7): < 10 nM; IC50 ([3]; Table 7): < 10 nM
7 | CN1CCC(Oc2ccc(-c3cn([C@H]4CC[C@H](O)CC4)c4nc(Nc5cc(C(F)(F)F)cc(C(F)(F)F)c5)ncc34)cc2)CC1 [Compound 150, trans-4-(2-((3,5-bis(trifluoromethyl)phenyl)amino)-5-(4-((1-methylpiperidin-4-yl)oxy)phenyl)-7H-pyrrolo[2,3-d]pyrimidin-7-yl)cyclohexan-1-ol] |  |  |  | IC50 ([1]; Table 7): 1000 to 30000 nM; IC50 ([2]; Table 7): 1000 to 30000 nM; IC50 ([3]; Table 7): 10 to 100 nM
8 | CN1CCN(C(=O)c2ccc(-c3cn([C@H]4CC[C@H](O)CC4)c4nc(Nc5cc(F)cc(Cl)c5)ncc34)cc2)CC1 [Compound 156] |  |  |  | IC50 ([1]; Table 9): 10 to 100 nM; IC50 ([2]; Table 9): < 10 nM; IC50 ([3]; Table 9): < 10 nM
9 | CC(=O)Oc1ccccc1C(=O)O [aspirin] |  |  |  | baseline major bleeding risk (gastrointestinal or intracranial) ([4]; in vivo): 1-4%
10 | COC(=O)[C@H](c1ccccc1Cl)N1CCc2sccc2C1 [clopidogrel] |  |  |  | further increase of major bleeding risk on addition as a combination therapy ([4]; added to aspirin): 1%

Continued, in another order:

Row | IC50 ([1]; Table 2, MCE assay, ATP at Km) [nM] | IC50 ([2]; Table 2, MCE assay, ATP at Km) [nM] | IC50 ([3]; Table 2, MCE assay, ATP at Km) [nM] | Compound | other results
11 | 10 to 100 | < 10 | < 10 | CN1CCC(Oc2ccc(-c3cn([C@H]4CC[C@H](O)CC4)c4nc(Nc5cc(F)cc(Cl)c5)ncc34)cc2)CC1 [Compound 37] | 
12 | < 10 | < 10 | < 10 | CN1CCN(Cc2ccc(-c3cn([C@H]4CC[C@H](O)CC4)c4nc(Nc5cccnc5)ncc34)cc2)CC1 [Compound 64] | 
13 | < 10 | < 10 | < 10 | CN1CCN(Cc2ccc(-c3cn([C@H]4CC[C@H](O)CC4)c4nc(Nc5cncnc5)ncc34)cc2)CC1 [Compound 66] | 
